# From PMC8473292 (Viruses, 2021)
# Where a name gives a salt, the structure may show the parent alone. Read-outs that look alike come from different tables or passages of the source.
# Legend:
# rPEDV-NLuc = assay: microbe, parasite or virus in culture; format: cell-based, Porcine epidemic diarrhea virus (PEDV) YN150 strain; details: for IC50: Vero cells, rPEDV-NLuc MOI 0.01, 1 h pre-treatment, 1.25-10 μM, NLuc activity at 20 h post-infection; for SI: selective index from CC50 and IC50
# in vitro = details: African green monkey
# PEDV-induced ROS = assay: Detection of PEDV-induced intracellular ROS production with DCFH-DA; format: cell-based; details: 10 μM, wild-type PEDV MOI 0.01, Vero cells, 16 h post-infection
# wild-type PEDV = assay: Confirmation of anti-PEDV activity with wild-type PEDV by TCID50 in Vero cells; format: cell-based, Porcine epidemic diarrhea virus (PEDV); details: wild-type PEDV MOI 0.01, Vero cells, TCID50 and IFA; antioxidants 2.5, 5, 10 μM; NAC 50, 100, 200 μM
# [1] = Porcine epidemic diarrhea virus, Vero
Molecule,IC50 (rPEDV-NLuc; read-out: IC50) [µM],SI (rPEDV-NLuc),"CC50 (Vero cells; Vero cells, MTT assay) [µM]",IC50 (rPEDV-NLuc; [1]) [µM],CC50 (in vitro) [µM],further results
COc1cc(/C=C/c2ccc(O)c(O)c2)cc(OC)c1 [3′-Hydroxypterostilbene],4.29,>23.29,> 100,–,–,–
CCc1c2c(nc3ccccc13)-c1cc3c(c(=O)n1C2)COC(=O)[C@]3(O)CC [7-Ethylcamptothecin],< 1.25,>80,> 100,–,–,–
COc1cc(O)cc(O)c1C(=O)/C=C/c1ccccc1 [(E)-Cardamonin],2.15,>46.44,> 100,–,–,–
"C[C@@H]1[C@H](O)[C@@H](C)/C=C/C=C/C=C/C=C/C=C/C=C/C=C/[C@H](O[C@@H]2O[C@H](C)[C@@H](O)[C@H](N)[C@@H]2O)C[C@@H]2O[C@](O)(C[C@@H](O)C[C@@H](O)[C@H](O)CC[C@@H](O)C[C@@H](O)CC(=O)O[C@H]1C)C[C@H](O)[C@H]2C(=O)O [Amphotericin B, reference compound]",–,>34.42,–,2.91,> 100,–
C=C(C)[C@@H]1CC[C@]2(C(=O)O)CC[C@]3(C)[C@H](CC[C@@H]4[C@@]5(C)CCC(=O)C(C)(C)[C@@H]5CC[C@]43C)[C@@H]12 [Betulonic acid],< 1.25,>49.52,61.9,–,–,DCFH-DA fluorescence in PEDV-infected cells (fluorescence microscopy) (PEDV-induced ROS): only a few fluorescence signals were detected
O=C(/C=C/c1ccc(O)c(O)c1)OCCc1ccccc1 [Caffeic Acid Phenethyl Ester],–,>57.63,–,1.74,> 100,DCFH-DA fluorescence in PEDV-infected cells (fluorescence microscopy) (PEDV-induced ROS): only a few fluorescence signals were detected
C[C@@]1(C(=O)O)CC[C@]2(C)CC[C@]3(C)C4=CC(=O)c5c(cc(O)c(O)c5C=O)[C@]4(C)CC[C@@]3(C)[C@@H]2C1 [Demethylzeylasteral],2.37,16.27,–,–,–,CC50 (Vero cells): 38.6 µM
"CC1=C(C(=O)OCCN(Cc2ccccc2)c2ccccc2)C(c2cccc([N+](=O)[O-])c2)C(P2(=O)OCC(C)(C)CO2)=C(C)N1 (centres unmarked) [Efonidipine, reference compound]",–,>17.93,–,5.58,> 100,–
Cc1cc(O)c2c(c1)C(=O)c1cc(O)cc(O)c1C2=O [Emodin],–,>50,–,2.1,> 100,–
O=c1ccc2cc(O)c(O)cc2o1 [Esculetin],–,>16.75,–,5.97,> 100,DCFH-DA fluorescence in PEDV-infected cells (fluorescence microscopy) (PEDV-induced ROS): only a few fluorescence signals were detected
COc1ccc2c(c1)[nH]c1c(C)nccc12 [Harmine hydrochloride],–,>75.04,–,1.33,> 100,–
COc1ccc2c(c1)[nH]c1c(C)nccc12 [Harmine],–,>51.10,–,–,–,IC50 (rPEDV-NLuc): 1.96 µM
C=CC(C)(C)c1cc(/C=C/C(=O)c2ccc(O)cc2)c(OC)cc1O [Licochalcone A],4,>25,> 100,–,–,–
C[C@H](CCC(=O)O)[C@H]1CC[C@H]2[C@@H]3CC[C@@H]4C[C@H](O)CC[C@]4(C)[C@H]3CC[C@]12C [Lithocholic acid],–,>42.12,–,2.37,> 100,DCFH-DA fluorescence in PEDV-infected cells (fluorescence microscopy) (PEDV-induced ROS): only a few fluorescence signals were detected
"CC(=O)N[C@@H](CS)C(=O)O [NAC, N-acetyl-L-cysteine]",–,–,–,–,–,"inhibition of PEDV replication, dose dependence (wild-type PEDV): exhibited anti-PEDV activity in a dose-dependent manner"
CC(Cc1ccc(O)c(O)c1)C(C)Cc1ccc(O)c(O)c1 (centres unmarked) [Nordihydroguaiaretic acid],5,>19.99,> 100,–,–,DCFH-DA fluorescence in PEDV-infected cells (fluorescence microscopy) (PEDV-induced ROS): only a few fluorescence signals were detected
C=C1C(=O)[C@]23[C@H](O)[C@H]1CC[C@H]2[C@@]12CO[C@]3(O)[C@@H](O)[C@@H]1C(C)(C)CC[C@@H]2O [Oridonin],–,–,–,3,35,–
C=CC1=C(C)c2cc3[nH]c(cc4nc(cc5[nH]c(cc1n2)c(C)c5CCC(=O)O)C(CCC(=O)O)=C4C)c(C)c3C=C [Protoporphyrin IX],–,>80,–,< 1.25,> 100,–
CC[C@]12C=CCN3CC[C@]4(C(=C(C(=O)OC)C1)Nc1ccccc14)[C@@H]32.Cl [Tabersonine hydrochloride],4.3,19.23,82.6,–,–,–
C[C@H]1[C@H](C)CC[C@]2(C(=O)O)CC[C@]3(C)C(=CC[C@@H]4[C@@]5(C)CCC(=O)C(C)(C)[C@@H]5CC[C@]43C)[C@H]12 [Ursonic acid],–,19.23,–,2.13,41,DCFH-DA fluorescence in PEDV-infected cells (fluorescence microscopy) (PEDV-induced ROS): only a few fluorescence signals were detected
Cc1cc2c(C(C)C)c(O)c(O)c(C=O)c2c(O)c1-c1c(C)cc2c(C(C)C)c(O)c(O)c(C=O)c2c1O [gossypol-Acetic acid],–,>30,–,2.9,> 100,–
Tannic acid,4.37,>22.89,> 100,–,–,–
Tubeimoside I,4.21,17.76,–,–,–,CC50 (Vero cells): 74.8 µM
